Laboratory results: paper PMC10193543 (ACS Omega, 2023)

Columns and labels:
mushroom TYR [1] = molecular target: T1, mushroom TYR (Agaricus bisporus, UniProt C7FF04); assay: Kinetic study of tyrosinase inhibitory activity; assay type: biochemical
Target sequence in this assay (C7FF04 1-392 limits assumed): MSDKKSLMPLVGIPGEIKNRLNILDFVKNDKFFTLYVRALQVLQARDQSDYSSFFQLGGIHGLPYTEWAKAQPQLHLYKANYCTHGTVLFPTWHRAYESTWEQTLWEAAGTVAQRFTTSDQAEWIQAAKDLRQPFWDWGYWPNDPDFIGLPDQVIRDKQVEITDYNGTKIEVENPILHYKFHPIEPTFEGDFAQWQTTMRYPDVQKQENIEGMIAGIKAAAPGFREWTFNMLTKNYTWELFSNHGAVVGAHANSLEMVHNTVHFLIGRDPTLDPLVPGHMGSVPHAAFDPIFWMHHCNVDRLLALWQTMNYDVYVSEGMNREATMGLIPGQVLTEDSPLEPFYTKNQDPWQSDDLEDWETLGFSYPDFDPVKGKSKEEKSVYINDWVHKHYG

mushroom TYR [2] = molecular target: T1, mushroom TYR; assay: biochemical; details: read-out: % inhibition at 25 μg/mL
Target sequence in this assay (C7FF04 2-392): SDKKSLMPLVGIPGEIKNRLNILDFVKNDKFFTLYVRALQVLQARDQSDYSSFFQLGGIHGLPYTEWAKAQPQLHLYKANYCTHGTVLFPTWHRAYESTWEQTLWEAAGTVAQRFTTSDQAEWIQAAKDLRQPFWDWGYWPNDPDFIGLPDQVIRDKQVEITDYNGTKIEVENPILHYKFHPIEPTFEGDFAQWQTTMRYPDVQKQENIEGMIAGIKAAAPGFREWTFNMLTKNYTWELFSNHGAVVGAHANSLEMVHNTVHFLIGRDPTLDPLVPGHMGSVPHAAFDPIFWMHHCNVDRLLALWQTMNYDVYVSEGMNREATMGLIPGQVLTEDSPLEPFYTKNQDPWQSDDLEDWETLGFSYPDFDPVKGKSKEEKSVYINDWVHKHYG

- Ki (mushroom TYR [1]): 1010 nM
- inhibition type (mushroom TYR [1]; diphenolase activity, L-DOPA oxidation, Lineweaver–Burk plots): mixed-type inhibition
- inhibition at 25 µg/mL (mushroom TYR [2]): 89 ± 3%
Compound: COc1ccc(C2CC(c3ccc(C)cc3)=Nc3ccccc3S2)cc1OC (stereo not drawn) [compound 2, 2-(3,4-dimethoxyphenyl)-4-(p-tolyl)-2,3-dihydrobenzo[b][1,4]thiazepine]
